PMC7570852, “Ruthenium(II)/(III) DMSO-Based Complexes of 2-Aminophenyl Benzimidazole with In Vitro and In Vivo Anticancer Activity” (Molecules, 2020)

Tests used:
[1] = system: human breast cancer (MCF7) cells; assay: MTT cell viability assay, MCF7; format: cell-based; settings: 24 h
Experimental: The cytotoxic effect of the Hapbim ligand and its complexes (1) and (2) on human breast cancer (MCF7), human colorectal cancer (Caco2), and human normal liver (THLE-2) cell lines was evaluated by the MTT assay. The cells were cultured in a 96-well plate (1 × 10^4 cells/well, 100 μL/well) containing DMEM medium provided with 10% fetal bovine serum, and 1% penicillin/streptomycin. Then, the cells were incubated at 37 °C for 24 h in a CO2 incubator under 5% CO2, 95% air until reaching a confluence of 70–80%. A 20 μL volume of each compound at different concentrations (from 5 to 400 μM for the cancer cell and from 600 to 1000 μM for the normal cells) was added and the cells were re-incubated for a further 24 h. After the incubation period, the cells were incubated again with 5 mg/mL of MTT for 4 h and then the medium was replaced with 100 μL DMSO and vortexed for 20 min. Finally, the absorbance was recorded at 570 nm using the microplate reader. […] To calculate the cell inhibition percentage, the following equation was used:% Cell inhibition = 100 − % cell viability ((At − Ab)/(Ac − Ab)) × 100%)(4) where At is the absorbance value of tested compound; Ab is the absorbance value of blank; Ac is the absorbance value of the control.

[2] = Maximum tolerated dose in healthy mice; format: in vivo
Experimental: These mice were examined daily for any sign of toxicity and weighed every two days. […] Therefore, doses of 6, 12, and 18 mg/kg were used in subsequent experiments.

Caco2 cells = assay: DNA fragmentation (agarose gel), Caco2; format: cell-based, human; settings: Caco2, 117.6 µg/mL, 4 h
Experimental: MCF7 and Caco2 cells were collected and genomic DNA was extracted using a Gene JET genomic DNA extraction kit following the manufacturer’s protocol (Thermo Scientific, #K0721). The extracted DNA samples were run on a 1.5% agarose gel at 50 V for 2 h and the fragment pattern was visualized by ethidium bromide staining under a UV transilluminator.

Bcl2 gene expression = assay: Real-time qPCR of liver tissue, Bcl2; format: in vivo; settings: liver tissue of EAC-bearing mice, vs untreated
Experimental: RNA was isolated from liver tissues using a RNeasy Mini kit. The integrity and purity of RNA were assessed by 1% agarose gel electrophoresis and nanodrop, respectively. The obtained RNA was reverse transcribed to yield cDNA using Quantiscript reverse transcriptase. Specific primers for Bax, caspase 3, and Bcl2 genes in addition to the housekeeping gene, β actin were designed by the Primer 3 web-based tool based on the published mice sequences (Table 5). Quantitative real-time PCR (qPCR) was performed using QuantiTect SYBR Green qPCR Master Mix in a StepOnePlus real-time PCR system and the melting curve condition and fold change calculation were done as previously described.

Cyclic voltammetry = format: physicochemical; settings: 10^−3 M in CH2Cl2/DMSO, 0.1 M (Bu4N)PF6, scan rate 50 mVs^−1
Experimental: Elemental analyses (C, H, N) were performed by the Microanalysis unit in the Department of Chemistry at Simon Fraser University. Infrared spectra (FTIR) were performed on a JASCO 4100 FTIR spectrophotometer in the 4000–400 cm^−1 range using a KBr disc. NMR (^1H and ^13C) spectra were recorded in DMSO-d6 solvent using a Bruker 400 MHz instrument. The 2D NMR analysis (^1H–^1H COSY) was performed on a Jeol 500 MHz NMR, at Mansoura University. ESI/APCI HRMS data were acquired on a Thermo Scientific Exactive Plus Orbitrap mass spectrometer. Electronic spectra (in DMSO, 200–900 nm) were measured on a JASCO 630 V spectrophotometer. Emission spectra of the complexes were measured on a Jenway model 6285 spectrofluorimeter for excitation and emission spectra, 200–700 nm. The magnetic susceptibility of the complexes was measured on a Johnson Matthey magnetic susceptibility balance. […] A microplate reader (StatFax-2100, Awareness Technology, Inc., Palm City, FA, USA), Attune flow cytometer (Applied Biosystems, Foster City, CA, USA), Quawell nanodrop Q5000 (San Jose, CA, USA), StepOnePlus real time PCR system (Applied Biosystems, Foster City, CA, USA), and CO2 incubator (NuAire In-Vitro Cell, Plymouth, MN, USA) were used in biological studies.

**Q.** For `CS(C)=O.Nc1ccccc1-c1nc2ccccc2[nH]1.O.[Cl][Ru]([Cl])[Cl]` [(2), [Ru(III)Cl3(DMSO)(Hapbim)]·H2O], which “IC50 MCF-7” value [1] is on record?
**A.** The value was 118 ± 8 µg/mL.

**Q.** What about the IC50 ([1]; read-out: IC50 MCF-7) of the same compound?
**A.** Its IC50 is 230 ± 10 µM.

**Q.** And the “toxicity on repeated dosing” value ([2]; healthy mice, 6, 12 and 18 mg/kg i.p., until the 12th day)?
**A.** Its value is “No weight loss or signs of toxicity”.

**Q.** What about the “toxicity on repeated dosing” value ([2]; healthy mice, 30 and 40 mg/kg i.p.) of the same compound?
**A.** The value was “toxic after 3-5 days and all the animals were dead on the fifth day”.

**Q.** And the DNA fragmentation (Caco2 cells)?
**A.** Its DNA fragmentation is “distinct DNA laddering”.

**Q.** And the Bcl2 gene expression (Bcl2 gene expression)?
**A.** The Bcl2 gene expression was “significant dose-dependent reduction”.

**Q.** What about the “E1/2 (Ru(II)/Ru(III) redox couple)” value (Cyclic voltammetry) of the same compound?
**A.** Its value is −295 mV.
